The source of these data is patent publication US7179597B2, “Genetic diagnosis for QT prolongation related adverse drug reactions” (Georgetown University, priority 2000, dated 2007).

Structures are written as SMILES. Entries after “also recorded” stand apart in the source; their conditions may differ.

In one data set the target is L-type ICa (Oryctolagus cuniculus, UniProt P15381). As to conditions: 10 μmol/L.
The subject of data set [1] is rabbit ventricular myocytes. The note with it: 3.3 μmol/L, about 4–5 min; before drug 341±49 ms; n=16, p>0.05.
In another data set the target is T1, IKr (Oryctolagus cuniculus, UniProt Q8WNY2).
T1 sequence (Q8WNY2 1-1161): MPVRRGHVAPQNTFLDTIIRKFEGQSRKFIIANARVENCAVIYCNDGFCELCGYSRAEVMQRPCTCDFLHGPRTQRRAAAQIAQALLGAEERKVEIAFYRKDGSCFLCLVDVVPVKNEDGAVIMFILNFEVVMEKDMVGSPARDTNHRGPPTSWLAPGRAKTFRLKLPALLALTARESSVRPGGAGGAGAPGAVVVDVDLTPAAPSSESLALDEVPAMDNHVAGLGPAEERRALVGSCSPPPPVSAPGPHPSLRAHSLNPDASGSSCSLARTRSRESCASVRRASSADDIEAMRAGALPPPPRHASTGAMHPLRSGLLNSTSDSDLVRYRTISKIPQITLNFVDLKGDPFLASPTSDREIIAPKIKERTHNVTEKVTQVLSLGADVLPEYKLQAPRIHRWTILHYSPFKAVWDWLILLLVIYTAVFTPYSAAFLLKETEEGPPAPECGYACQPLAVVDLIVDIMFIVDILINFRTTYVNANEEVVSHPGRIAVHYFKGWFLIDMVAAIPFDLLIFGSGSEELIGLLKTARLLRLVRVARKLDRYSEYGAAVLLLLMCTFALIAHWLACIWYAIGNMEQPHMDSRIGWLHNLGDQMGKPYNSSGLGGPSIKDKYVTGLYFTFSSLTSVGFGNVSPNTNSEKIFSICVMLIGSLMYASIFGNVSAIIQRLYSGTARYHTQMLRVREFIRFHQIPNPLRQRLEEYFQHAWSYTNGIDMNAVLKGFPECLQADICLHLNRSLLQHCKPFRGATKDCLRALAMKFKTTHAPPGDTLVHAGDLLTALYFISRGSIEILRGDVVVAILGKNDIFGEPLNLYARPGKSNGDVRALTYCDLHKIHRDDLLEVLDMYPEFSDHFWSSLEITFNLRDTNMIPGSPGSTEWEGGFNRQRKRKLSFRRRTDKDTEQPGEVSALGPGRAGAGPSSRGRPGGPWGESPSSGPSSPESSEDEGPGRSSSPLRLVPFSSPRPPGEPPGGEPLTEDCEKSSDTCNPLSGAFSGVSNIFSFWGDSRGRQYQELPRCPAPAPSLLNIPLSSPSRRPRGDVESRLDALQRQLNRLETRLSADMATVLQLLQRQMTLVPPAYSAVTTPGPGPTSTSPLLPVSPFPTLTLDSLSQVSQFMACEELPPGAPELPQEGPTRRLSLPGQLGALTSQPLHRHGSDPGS
The note with it: superfusion with 1–2.5 μmol/L (Liu et al. 1998); cited from earlier work.

The target in another data set is P-gp (Homo sapiens, UniProt P08183). The note with it: Atadja et al. 1998; cited from earlier work.
P-gp, sequence (P08183 whole entry, the tested form may be a part): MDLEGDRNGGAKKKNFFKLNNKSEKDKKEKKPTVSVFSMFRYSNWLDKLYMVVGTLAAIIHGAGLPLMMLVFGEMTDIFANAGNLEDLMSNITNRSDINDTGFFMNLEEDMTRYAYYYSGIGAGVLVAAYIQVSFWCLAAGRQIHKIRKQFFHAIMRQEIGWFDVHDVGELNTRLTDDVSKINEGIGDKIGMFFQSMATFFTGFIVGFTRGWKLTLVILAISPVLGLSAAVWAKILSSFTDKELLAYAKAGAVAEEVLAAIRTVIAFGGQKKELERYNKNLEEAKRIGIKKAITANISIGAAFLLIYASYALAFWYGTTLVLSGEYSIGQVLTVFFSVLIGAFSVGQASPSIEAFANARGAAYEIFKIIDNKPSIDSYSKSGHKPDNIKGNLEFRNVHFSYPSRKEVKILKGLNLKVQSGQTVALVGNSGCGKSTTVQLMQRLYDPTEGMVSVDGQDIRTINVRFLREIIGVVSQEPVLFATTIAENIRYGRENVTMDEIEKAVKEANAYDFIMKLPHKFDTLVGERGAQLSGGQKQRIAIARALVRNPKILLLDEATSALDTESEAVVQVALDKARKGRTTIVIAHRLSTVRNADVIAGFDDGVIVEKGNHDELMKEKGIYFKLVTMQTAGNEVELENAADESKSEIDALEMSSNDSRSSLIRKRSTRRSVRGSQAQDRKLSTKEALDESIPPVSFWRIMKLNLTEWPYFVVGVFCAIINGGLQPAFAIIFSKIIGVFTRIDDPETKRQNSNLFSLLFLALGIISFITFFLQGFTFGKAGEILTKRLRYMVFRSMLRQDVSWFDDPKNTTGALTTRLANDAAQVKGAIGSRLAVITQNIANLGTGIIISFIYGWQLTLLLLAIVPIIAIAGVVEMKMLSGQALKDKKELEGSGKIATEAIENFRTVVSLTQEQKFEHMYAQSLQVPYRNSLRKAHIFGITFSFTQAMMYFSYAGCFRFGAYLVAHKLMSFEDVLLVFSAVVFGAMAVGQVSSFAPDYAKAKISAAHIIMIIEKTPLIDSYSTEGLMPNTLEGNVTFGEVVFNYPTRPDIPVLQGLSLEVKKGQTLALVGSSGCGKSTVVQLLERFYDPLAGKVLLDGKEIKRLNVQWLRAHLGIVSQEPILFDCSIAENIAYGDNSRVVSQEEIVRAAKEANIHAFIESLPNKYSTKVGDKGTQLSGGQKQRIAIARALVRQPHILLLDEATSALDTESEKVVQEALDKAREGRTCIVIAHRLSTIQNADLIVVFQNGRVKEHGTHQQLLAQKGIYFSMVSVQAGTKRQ
Another data set has as its system Ito. Briefly: Whole-cell voltage clamp of transient outward current Ito in rabbit ventricular myocytes. The data set is classed as cell-based. The note with it: 5 μmol/L, 5 minutes superfusion.
The subject of a further data set is IK1. Briefly: Whole-cell voltage clamp of inward rectifier IK1 in rabbit ventricular myocytes. The data set is classed as cell-based. As to conditions: 5 μmol/L, 5 minutes.
The subject of data set [2] is cultured neonatal rat cardiomyocytes. Briefly: Spontaneous beating rate of cultured neonatal rat cardiomyocytes. Type of data set: cell-based. The note with it: 5–10 mnM E-4031 alone. An excerpt: Delayed rectifier potassium channels are important components of cardiac repolarization. There are two major delayed rectifier potassium currents, IKr (rapid component) and IKs (slow component). Drugs that block these currents, particularly IKr, slow cardiac repolarization and increase the risk of developing potentially fatal cardiac arrhythmias such as Torsades de Pointes. Moreover, mutations in the genes encoding for delayed rectifier potassium channel proteins have been linked to long QT syndrome, a condition seen in patients at high risk for developing Torsades de Pointes cardiac arrhythmias and sudden death. […] Recently, however, a new compound, chromanol 293B, has been reported to be a relatively selective blocker of IKs (Busch et al., Pflug. Arch. 432: 1094–6 (1996)). In the present report, we have tested this compound using spontaneously beating cultures of neonatal rat cardiomyocytes.
In addition to the different electrophysiological properties of IKr versus IKs that have been described by others, these currents can be distinguished pharmacologically (Sanguinetti et al., J. Gen. Physiol. 96: 195–215 (1990)). […] To determine if pharmacological blockade of delayed rectifier potassium currents influences the spontaneous beating rate of cultured neonatal rat cardiomyocytes, a dose-response curve was generated for chromanol 293B.

L-type ICa, sequence (P15381 whole entry, other chains not shown): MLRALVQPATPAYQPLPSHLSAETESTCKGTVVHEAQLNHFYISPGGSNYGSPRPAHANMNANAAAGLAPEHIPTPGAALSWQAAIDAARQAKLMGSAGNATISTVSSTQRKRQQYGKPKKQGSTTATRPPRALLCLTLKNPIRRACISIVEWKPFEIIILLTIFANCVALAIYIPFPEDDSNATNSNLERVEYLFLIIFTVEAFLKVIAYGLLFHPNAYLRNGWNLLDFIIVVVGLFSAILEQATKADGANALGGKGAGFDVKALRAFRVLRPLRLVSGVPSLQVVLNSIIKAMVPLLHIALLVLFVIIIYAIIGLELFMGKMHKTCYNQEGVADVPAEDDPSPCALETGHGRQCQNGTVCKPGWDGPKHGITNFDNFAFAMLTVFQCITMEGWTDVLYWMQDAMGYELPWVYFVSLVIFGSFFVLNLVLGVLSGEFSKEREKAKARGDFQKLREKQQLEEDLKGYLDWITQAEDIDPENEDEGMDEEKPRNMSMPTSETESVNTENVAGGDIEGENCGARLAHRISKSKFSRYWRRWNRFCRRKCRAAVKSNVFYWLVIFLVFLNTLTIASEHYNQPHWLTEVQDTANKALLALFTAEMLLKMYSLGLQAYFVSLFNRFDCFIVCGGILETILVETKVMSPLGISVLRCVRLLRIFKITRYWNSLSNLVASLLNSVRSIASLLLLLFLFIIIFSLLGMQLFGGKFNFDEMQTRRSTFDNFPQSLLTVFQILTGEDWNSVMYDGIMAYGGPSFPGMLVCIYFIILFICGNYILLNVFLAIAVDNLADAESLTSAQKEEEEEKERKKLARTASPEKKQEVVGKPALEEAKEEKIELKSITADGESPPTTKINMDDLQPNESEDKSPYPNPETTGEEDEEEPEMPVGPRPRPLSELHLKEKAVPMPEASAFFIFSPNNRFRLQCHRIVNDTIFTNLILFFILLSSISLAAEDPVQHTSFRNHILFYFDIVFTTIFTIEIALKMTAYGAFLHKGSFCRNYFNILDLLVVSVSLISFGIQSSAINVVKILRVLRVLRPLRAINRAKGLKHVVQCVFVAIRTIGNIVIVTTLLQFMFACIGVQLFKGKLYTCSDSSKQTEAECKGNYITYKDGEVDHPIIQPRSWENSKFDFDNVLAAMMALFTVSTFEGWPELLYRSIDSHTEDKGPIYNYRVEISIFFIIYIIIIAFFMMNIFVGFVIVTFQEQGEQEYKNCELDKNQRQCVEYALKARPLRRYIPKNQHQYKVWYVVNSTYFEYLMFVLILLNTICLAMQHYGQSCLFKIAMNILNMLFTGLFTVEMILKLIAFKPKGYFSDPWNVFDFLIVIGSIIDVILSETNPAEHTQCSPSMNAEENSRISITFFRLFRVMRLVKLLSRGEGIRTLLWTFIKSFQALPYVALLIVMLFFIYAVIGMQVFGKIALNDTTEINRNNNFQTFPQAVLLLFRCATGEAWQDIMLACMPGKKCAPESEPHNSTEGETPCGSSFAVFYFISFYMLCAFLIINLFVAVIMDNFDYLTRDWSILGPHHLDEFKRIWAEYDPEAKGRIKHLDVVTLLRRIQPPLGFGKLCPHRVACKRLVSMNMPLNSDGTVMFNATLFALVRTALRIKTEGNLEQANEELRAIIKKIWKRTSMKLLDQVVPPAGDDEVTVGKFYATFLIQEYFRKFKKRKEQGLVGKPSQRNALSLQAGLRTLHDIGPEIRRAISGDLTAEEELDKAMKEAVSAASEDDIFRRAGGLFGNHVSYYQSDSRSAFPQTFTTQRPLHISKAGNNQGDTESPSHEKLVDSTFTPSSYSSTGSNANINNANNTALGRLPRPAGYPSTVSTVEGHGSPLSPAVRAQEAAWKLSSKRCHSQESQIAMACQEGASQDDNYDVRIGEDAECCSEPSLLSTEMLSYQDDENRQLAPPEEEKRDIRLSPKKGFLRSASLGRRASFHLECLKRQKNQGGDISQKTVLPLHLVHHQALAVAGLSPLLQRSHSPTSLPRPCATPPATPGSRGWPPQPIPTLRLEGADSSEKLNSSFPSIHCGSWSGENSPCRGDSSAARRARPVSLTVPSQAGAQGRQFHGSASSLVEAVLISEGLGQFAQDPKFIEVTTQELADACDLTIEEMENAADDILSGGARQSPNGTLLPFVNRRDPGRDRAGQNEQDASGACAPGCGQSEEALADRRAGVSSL
L-type ICa, sequence (P13806 27-1106 partner, other chains not shown): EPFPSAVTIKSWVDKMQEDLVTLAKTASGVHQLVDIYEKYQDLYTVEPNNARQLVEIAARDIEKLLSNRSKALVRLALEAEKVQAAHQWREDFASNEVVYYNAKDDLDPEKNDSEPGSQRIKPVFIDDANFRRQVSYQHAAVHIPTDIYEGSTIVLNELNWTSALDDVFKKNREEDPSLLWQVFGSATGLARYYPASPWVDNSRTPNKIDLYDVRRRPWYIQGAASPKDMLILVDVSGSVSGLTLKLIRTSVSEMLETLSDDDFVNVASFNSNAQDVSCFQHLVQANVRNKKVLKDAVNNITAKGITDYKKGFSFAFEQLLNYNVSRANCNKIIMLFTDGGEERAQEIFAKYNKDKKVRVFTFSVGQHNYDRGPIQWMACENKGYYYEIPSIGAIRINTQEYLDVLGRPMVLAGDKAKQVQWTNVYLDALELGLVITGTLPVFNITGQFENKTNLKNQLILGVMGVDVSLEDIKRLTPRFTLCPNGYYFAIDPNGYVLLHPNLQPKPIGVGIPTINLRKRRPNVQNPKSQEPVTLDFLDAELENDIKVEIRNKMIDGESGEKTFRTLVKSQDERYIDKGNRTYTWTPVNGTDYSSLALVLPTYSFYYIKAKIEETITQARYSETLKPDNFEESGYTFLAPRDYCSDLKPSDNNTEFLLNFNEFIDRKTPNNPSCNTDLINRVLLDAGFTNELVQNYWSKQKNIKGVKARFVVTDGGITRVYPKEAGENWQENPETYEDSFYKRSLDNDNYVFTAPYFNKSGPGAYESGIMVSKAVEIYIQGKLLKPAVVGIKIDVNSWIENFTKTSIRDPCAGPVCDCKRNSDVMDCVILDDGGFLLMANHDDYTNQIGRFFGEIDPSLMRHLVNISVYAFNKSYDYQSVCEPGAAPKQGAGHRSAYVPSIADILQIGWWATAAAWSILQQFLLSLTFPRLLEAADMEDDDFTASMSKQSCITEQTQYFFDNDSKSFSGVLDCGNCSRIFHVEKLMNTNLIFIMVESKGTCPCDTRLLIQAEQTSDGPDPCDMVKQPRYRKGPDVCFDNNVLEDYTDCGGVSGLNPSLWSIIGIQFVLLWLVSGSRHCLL

With `CC/C(=C(\c1ccccc1)c1ccc(OCCN(C)C)cc1)c1ccccc1` [Tamoxifen], the “Inhibition of ICa” value at L-type ICa is “almost complete inhibition; also recorded: marked inhibition”. In addition, in data set [1], the “APD measured at 90% repolarization (APD90) after superfusion” value was determined as 332 ± 19 ms.
Take `CN(CCOc1ccc(NS(C)(=O)=O)cc1)CCc1ccc(NS(C)(=O)=O)cc1` [dofetilide]: at IKr, the “Effect on IKr tail current” value is “abolished”.
For `C/C=C/C[C@@H](C)C(=O)[C@H]1C(=O)N[C@@H](C(C)C)C(=O)N(C)CC(=O)N(C)[C@@H](CC(C)C)C(=O)N[C@@H](C(C)C)C(=O)N(C)[C@@H](CC(C)C)C(=O)N[C@@H](C)C(=O)N[C@H](C)C(=O)N(C)[C@@H](CC(C)C)C(=O)N(C)[C@@H](CC(C)C)C(=O)N(C)[C@@H](C(C)C)C(=O)N1C` [PSC-833], the “Effect on P-gp” value at P-gp is “potently and specifically inhibits”.
Regarding `Cc1cccc(CCN2CCC(C(=O)c3ccc(NS(C)(=O)=O)cc3)CC2)n1` [E-4031], the “Effect on transient outward current (Ito)” value in the data set on Ito is listed as “no effect; also recorded: without affecting”. In addition, the “Effect on IK1 outward (holding) current” value with IK1 (at −40 mV) is given as “without affecting; also recorded: no effect”. The “Effect on IK1 inward current” value with IK1 (recorded at −120 mV) is listed as “little effect”. The “Maximum inhibition of beating activity, drug alone” value in data set [2] was determined as 50%.
